The values that follow come from US12465603B2, “Phthalazinone based modulators for the treatment of disease” (Soley Therapeutics, Inc., priority 2022, dated 2025).

Assay [1] has as its system A2058 (ATCC, CRL-11147) cells. Kind of assay: Cell viability assay (Cell Titre Glo, 72 hours) in A2058 cells. It is filed as cell-based. As to conditions: Homo sapiens. Here is the method:
(§1) Example 31: Cell Viability Assays
(§2) Phthalazinone based modulators as described herein were dispensed into 384 well CulturPlates™ (PerkinElmer) using Echo 555 acoustic dispensing in 10-point dose response curves at a final top concentration of 30 μM following a 1 in 3 dilution series. A2058 (ATCC, CRL-11147) or PA1 (ECACC, 90013101) cells were added directly to a compound at a density of 5000 cells per well in a final volume of 50 μL and incubated for 72 hours at 37° C., 5% CO2. Viability was assessed using Cell Titre Glo® (Promega) according to the manufacturer's instructions (25 μL per well) and IC50 curves were generated for each inhibitor using IDBS ActivityBase data analysis software.

In assay [2] the test system is PA1 (ECACC, 90013101) cells. Nature of the assay: Cell viability assay (Cell Titre Glo, 72 hours) in PA1 cells. It counts as cell-based. As to conditions: Homo sapiens, PA-1. Here is the method:
as §1, §2

Usually IC50 stands for the concentration needed to halve the response being measured. Take `Cn1nc(C(=O)N2CCN(c3cccn4ccnc34)CC2)c2ccccc2c1=O` [Compound 192]: the results for the half-maximal inhibitory concentration (IC50) in assay [1] and in assay [2] were 10000 to 20000 nM and 1000 to 10000 nM, respectively.
For the compound `CCn1nc(C(=O)N2CCN(c3ccc(F)c4c3CCO4)CC2)c2ccccc2c1=O` [Compound 188], the IC50 in assay [1] and in assay [2] was no more than 1000 nM in each case.
Regarding `CC(C)c1cncc(N2CCN(C(=O)c3nn(C)c(=O)c4ccc(F)cc34)CC2)c1` [Compound 209], the 50% inhibitory concentration (IC50) in assay [1] and in assay [2] was 10000 to 20000 nM each time.
Turning to `Cn1nc(C(=O)N2CCN(c3ccccc3F)CC2)c2ccccc2c1=O` [Compound 30], the IC50 in assay [1] and in assay [2] was 1000 to 10000 nM throughout.
Regarding `CCn1nc(C(=O)N2CCN(c3cc(F)cc(F)c3)CC2)c2ccccc2c1=O` [Compound 142], the half-inhibitory concentration (IC50) in assay [1] and in assay [2] was no more than 1000 nM in each case.
Regarding `CCn1nc(C(=O)N2CCN(c3ncccc3C3CC3)CC2)c2ccccc2c1=O` [Compound 108], the IC50 in assay [1] and in assay [2] was no more than 1000 nM in each case.
As for `COc1cc(C#N)cc(N2CCN(C(=O)c3nn(C)c(=O)c4ccccc34)CC2)c1` [Compound 224, 3-methoxy-5-(4-(3-methyl-4-oxo-3,4-dihydrophthalazine-1-carbonyl)piperazin-1-yl)benzonitrile], the 50% inhibitory concentration (IC50) in assay [1] and in assay [2] was no more than 1000 nM each time.
Regarding `CCn1nc(C(=O)N2CCN(c3ncc(C#N)cc3OC)CC2)c2ccccc2c1=O` [Compound 93], the IC50 in assay [1] and in assay [2] was 1000 to 10000 nM throughout.
As to `COc1cccnc1N1CCN(C(=O)c2nn(C)c(=O)c3ccccc23)CC1` [Compound 14], the 50% inhibitory concentration (IC50) in assay [1] is 1000 to 10000 nM; in assay [2], no more than 1000 nM.
On the same counts, the results for `CCn1nc(C(=O)N2CCN(c3cccc4c3CCO4)CC2)c2ccccc2c1=O` [Compound 155] are no more than 1000 nM and no more than 1000 nM.
For `Cn1nc(C(=O)N2CCN(c3ccc(C#N)cc3)CC2)c2ccccc2c1=O` [Compound 46], in that order: 1000 to 10000 nM and 1000 to 10000 nM.
For `CCn1nc(C(=O)N2CCN(c3ccccc3C)CC2)c2ccccc2c1=O` [Compound 102], in that order: no more than 1000 nM and no more than 1000 nM.
Take `Cn1nc(C(=O)N2CCN(c3ccc(C(F)(F)F)cc3)CC2)c2ccccc2c1=O` [Compound 27]: the concentration for half-maximal inhibition (IC50) in assay [1] and in assay [2] was 1000 to 10000 nM in each case.
`Cc1cncc(N2CCN(C(=O)c3nn(C)c(=O)c4ccc(Cl)cc34)CC2)c1` [Compound 245, 6-chloro-2-methyl-4-(4-(5-methylpyridin-3-yl)piperazine-1-carbonyl)phthalazin-1(2H)-one]: the IC50 in assay [1] is greater than 20000 nM; in assay [2], 10000 to 20000 nM.
On the same counts, the results for `Cn1ccc(N2CCN(C(=O)c3nn(C)c(=O)c4ccccc34)CC2)n1` [Compound 11] are greater than 20000 nM and greater than 20000 nM.
For `Cn1nc(C(=O)N2CCN(c3cccc4cnn(C)c34)CC2)c2ccccc2c1=O` [Compound 191], in that order: greater than 20000 nM and greater than 20000 nM.
`CCn1nc(C(=O)N2CCN(c3ccc(C)s3)CC2)c2ccccc2c1=O` [Compound 125]: the IC50 is greater than 20000 nM in assay [1] and 10000 to 20000 nM in assay [2].
On the same counts, the results for `COc1cccc(N2CCN(C(=O)c3nn(C)c(=O)c4ccccc34)CC2)c1` [Compound 50] are no more than 1000 nM and no more than 1000 nM.
On the same counts, the results for `COc1ccc(C2(C)CCN(C(=O)c3nn(C)c(=O)c4ccccc34)CC2)cc1` [Compound 248, 4-(4-(4-methoxyphenyl)-4-methylpiperidine-1-carbonyl)-2-methylphthalazin-1(2H)-one] are 1000 to 10000 nM and 10000 to 20000 nM.
For `COc1ccccc1N1CCN(C(=O)c2nn(C)c(=O)c3ccncc23)CC1` [Compound 175], the IC50 in assay [1] is 1000 to 10000 nM; in assay [2] it was no more than 1000 nM.
For `COc1cc(C)cc(N2CCN(C(=O)c3nn(C)c(=O)c4ccncc34)CC2)c1` [Compound 217], in that order: no more than 1000 nM and no more than 1000 nM.
For `CCn1nc(C(=O)N2CCN(c3nccnc3OC)CC2)c2ccccc2c1=O` [Compound 99], in that order: 1000 to 10000 nM and 1000 to 10000 nM.
On the same counts, the results for `CCn1nc(C(=O)N2CCN(c3ncccc3F)CC2)c2ccccc2c1=O` [Compound 107] are greater than 20000 nM and greater than 20000 nM.
For the compound `CCOc1ccccc1N1CCN(C(=O)c2nn(C)c(=O)c3ccccc23)CC1` [Compound 42], the half-maximal inhibitory concentration (IC50) in assay [1] and in assay [2] was no more than 1000 nM throughout.
On to `CCn1nc(C(=O)N2CCN(c3cc(OC)cnn3)CC2)c2ccccc2c1=O` [Compound 112], for which the half-inhibitory concentration (IC50) in assay [1] and in assay [2] was greater than 20000 nM throughout.
With `CCc1cncc(N2CCN(C(=O)c3nn(C)c(=O)c4ccc(F)cc34)CC2)c1` [Compound 210], the figures for the IC50 in assay [1] and in assay [2] were 1000 to 10000 nM and no more than 1000 nM, respectively.
On the same counts, the results for `CCn1nc(C(=O)N2CCN(c3ccnc4ccoc34)CC2)c2ccccc2c1=O` [Compound 95] are no more than 1000 nM and no more than 1000 nM.
For `CCn1nc(C(=O)N2CCN(c3ccccc3OC(F)(F)F)CC2)c2ccccc2c1=O` [Compound 135], the IC50 in assay [1] and in assay [2] was no more than 1000 nM each time.
As for `Cn1nc(C(=O)N2CCN(c3ccncc3)CC2)c2ccccc2c1=O` [Compound 28], the IC50 in assay [1] and in assay [2] was greater than 20000 nM in each case.
In the case of `CCn1nc(C(=O)N2CCN(c3ccncc3C3CC3)CC2)c2ccccc2c1=O` [Compound 115], the IC50 in assay [1] and in assay [2] was no more than 1000 nM each time.
Take `CCn1nc(C(=O)N2CCN(c3cccc4c3OC(F)(F)O4)CC2)c2ccccc2c1=O` [Compound 124]: the concentration for half-maximal inhibition (IC50) in assay [1] and in assay [2] was no more than 1000 nM in each case.
As to `CCn1nc(C(=O)N2CCN(c3cncnc3OC)CC2)c2ccccc2c1=O` [Compound 83], the half-maximal inhibitory concentration (IC50) in assay [1] is 1000 to 10000 nM; in assay [2], no more than 1000 nM.
On the same counts, the results for `CC(C)Oc1cc(F)ccc1N1CCN(C(=O)c2nn(C)c(=O)c3ccccc23)CC1` [Compound 59] are 1000 to 10000 nM and 1000 to 10000 nM.
On the same counts, the results for `Cn1nc(C(=O)N2CCN(c3ccncc3F)CC2)c2ccccc2c1=O` [Compound 18] are greater than 20000 nM and greater than 20000 nM.
On the same counts, the results for `O=C(c1nn(CC(F)(F)F)c(=O)c2ccccc12)N1CCN(c2ccccc2)CC1` [Compound 6] are greater than 20000 nM and greater than 20000 nM.
On to `CCn1nc(C(=O)N2CCN(c3cc(C#N)ccc3C3CC3)CC2)c2cnccc2c1=O` [Compound 242], for which the half-maximal inhibitory concentration (IC50) in assay [1] and in assay [2] was no more than 1000 nM throughout.
As to `CCn1nc(C(=O)N2CCN(c3cncc(C)c3)CC2)c2cc(F)ccc2c1=O` [Compound 238], the IC50 in assay [1] and in assay [2] was no more than 1000 nM throughout.
Consider `Cn1nc(C(=O)N2CCN(c3cncc(C#N)c3)CC2)c2ccccc2c1=O` [Compound 226], for which the concentration for half-maximal inhibition (IC50) in assay [1] and in assay [2] was greater than 20000 nM each time.
For `CCn1nc(C(=O)N2CCN(c3ccc(OC)c(F)c3)CC2)c2ccccc2c1=O` [Compound 141], the IC50 in assay [1] and in assay [2] was greater than 20000 nM in each case.
`Cn1nc(C(=O)N2CCN(c3ccnc4cnn(C)c34)CC2)c2ccccc2c1=O` [Compound 193]: the half-maximal inhibitory concentration (IC50) in assay [1] and in assay [2] was greater than 20000 nM throughout.
Turning to `Cn1nc(C(=O)N2CCN(c3cccc(F)c3)CC2)c2ccccc2c1=O` [Compound 33], the half-maximal inhibitory concentration (IC50) in assay [1] and in assay [2] was no more than 1000 nM in each case.
For `Cc1cc(C#N)cc(N2CCN(C(=O)c3nn(C)c(=O)c4ccccc34)CC2)c1` [Compound 68], the concentration for half-maximal inhibition (IC50) in assay [1] and in assay [2] was no more than 1000 nM throughout.
As to `Cn1nc(C(=O)N2CCN(c3cncc(F)c3)CC2)c2ccccc2c1=O` [Compound 38], the half-maximal inhibitory concentration (IC50) in assay [1] is 10000 to 20000 nM; in assay [2], 1000 to 10000 nM.
On the same counts, the results for `COc1ccncc1N1CCN(C(=O)c2nn(C)c(=O)c3ccc(Cl)cc23)CC1` [Compound 246, 6-chloro-4-(4-(4-methoxypyridin-3-yl)piperazine-1-carbonyl)-2-methylphthalazin-1(2H)-one] are 1000 to 10000 nM and no more than 1000 nM.
For `Cn1nc(C(=O)N2CCN(c3cc(C#N)cc(C#N)c3)CC2)c2ccccc2c1=O` [Compound 230, 5-(4-(3-methyl-4-oxo-3,4-dihydrophthalazine-1-carbonyl)piperazin-1-yl)isophthalonitrile], in that order: 1000 to 10000 nM and no more than 1000 nM.
On the same counts, the results for `Cn1nc(C(=O)N2CCN(c3cc(Cl)cc(C#N)c3)CC2)c2ccccc2c1=O` [Compound 225] are no more than 1000 nM and no more than 1000 nM.
For the compound `COc1ccc(N2CCN(C(=O)c3nn(C)c(=O)c4ccccc34)CC2)cc1` [Compound 29], the half-inhibitory concentration (IC50) in assay [1] and in assay [2] was greater than 20000 nM in each case.
With `Cn1nc(C(=O)N2CCN(c3cc(Cl)cc(Cl)c3)CC2)c2cnccc2c1=O` [Compound 218], the IC50 in assay [1] and in assay [2] was no more than 1000 nM in each case.
Regarding `COc1cc(C#N)cc(N2CCN(C(=O)c3nn(C)c(=O)c4ccncc34)CC2)c1` [Compound 216], the IC50 in assay [1] and in assay [2] was no more than 1000 nM each time.
In the case of `Cn1nc(C(=O)N2CCN(c3ccc(F)c(F)c3)CC2)c2ccccc2c1=O` [Compound 43], the half-inhibitory concentration (IC50) in assay [1] and in assay [2] was 1000 to 10000 nM in each case.
Regarding `CCn1nc(C(=O)N2CCN(c3cccc(F)n3)CC2)c2ccccc2c1=O` [Compound 82], the IC50 in assay [1] is greater than 20000 nM; in assay [2], 10000 to 20000 nM.
Consider `Cn1nc(C(=O)N2CCN(c3ccnc4c3OCC4)CC2)c2ccccc2c1=O` [Compound 189], for which the half-maximal inhibitory concentration (IC50) in assay [1] and in assay [2] was no more than 1000 nM throughout.
